Source: ChEMBL document CHEMBL1201862, “PubChem BioAssay data set” (2004)
Where “and” joins values, the source holds several entries; their conditions need not be identical. Identical values can stand only once. Calls of active or inactive are those of the source.

Assays:
[1] = Shn3 3'UTR reporter inhibitors, dose response, cell-based, Clone20 osteoblasts, firefly luciferase, cherry-picked (AID 624132); assay type: functional;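 further: firefly luciferase luminescence from reporter carrying the Shn3 3'UTR in osteoblasts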
[2] = growth suppression of PTEN-null colon cells, dose response, cell-based, HCT116 PTEN knockout (AID 1047); assay type: functional;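 further: HCT116 colon tumor cells with PTEN knocked out; cells exposed to compound for 60 hours before readout; potency for loss of cell viability measured by luminescence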
[3] = growth suppression of beta-catenin-knockout colon cells, dose response, cell-based, HCT116, human colon tumor (AID 1045); assay type: functional;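 further: HCT116 colon tumor cells with beta catenin knocked out; cells exposed to compound for 60 hours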
[4] = molecular target: FAD-linked sulfhydryl oxidase ALR (Homo sapiens, UniProt P55789); assay: inhibitors of human ALR sulfhydryl oxidase, dose response, biochemical, H2O2 detection, luminescence, cherry-pick (AID 493248)
Large T antigen = Large T antigen (Simian virus 40, UniProt P03070); assay type: functional, Betapolyomavirus macacae;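 further: Confirmatory-stage PubChem screen for compounds that inhibit SV40 T antigen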
H9c2 = assay: cells; assay type: functional, cell-based; conditions: Rattus norvegicus, H9c2, Myocardium;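 further: confirmatory concentration-response retest of ultra-high-throughput screening hits for modulation of myocardial damage; cell death induced by hydrogen peroxide oxidative stress; compound pretreatment for 60 min then peroxide exposure for 2 h; potency is for protecting the cells against peroxide damage rather than for killing them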
[5] = molecular target: T1, Rac GTPase-activating protein 1 (Homo sapiens, UniProt Q9H0H5); assay: MgcRacGAP GTPase-activating activity inhibitors, confirmation, biochemical, ADP Hunter fluorescence, primary and confirmatory (AID 624330); assay type: functional
T1 sequence (Q9H0H5 whole entry): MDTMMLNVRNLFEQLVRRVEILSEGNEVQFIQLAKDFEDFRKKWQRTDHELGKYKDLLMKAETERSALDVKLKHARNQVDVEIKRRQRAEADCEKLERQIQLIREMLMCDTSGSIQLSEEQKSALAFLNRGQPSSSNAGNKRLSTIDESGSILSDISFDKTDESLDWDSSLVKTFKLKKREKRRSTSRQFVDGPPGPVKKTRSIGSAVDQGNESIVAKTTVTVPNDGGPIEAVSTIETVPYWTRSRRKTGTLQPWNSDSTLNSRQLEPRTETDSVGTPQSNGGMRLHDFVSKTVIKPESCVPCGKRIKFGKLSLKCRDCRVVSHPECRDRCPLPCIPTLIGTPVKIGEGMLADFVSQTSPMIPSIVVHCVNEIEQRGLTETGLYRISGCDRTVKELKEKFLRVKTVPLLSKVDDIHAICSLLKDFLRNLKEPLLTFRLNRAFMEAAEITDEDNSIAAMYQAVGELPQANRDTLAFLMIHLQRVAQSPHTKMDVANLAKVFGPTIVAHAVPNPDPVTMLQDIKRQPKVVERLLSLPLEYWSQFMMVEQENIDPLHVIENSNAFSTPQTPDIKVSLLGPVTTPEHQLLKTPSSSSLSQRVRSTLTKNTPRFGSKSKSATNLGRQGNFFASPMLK

[6] = molecular target: T2, Heat shock factor protein 1 (Mus musculus, UniProt P38532); assay: HSF1 potentiators in luciferase reporter cells, confirmation, cell-based, NIH3T3, luminescence, dose retest (AID 435004); assay type: functional;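 further: stress induced by proteasome inhibitor MG132 added 30 min after compound; luciferase reporter driven by HSF1 response element in NIH3T3 cells; actives raise luminescence as potentiators of the MG132 stress response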
T2 sequence (P38532 whole entry): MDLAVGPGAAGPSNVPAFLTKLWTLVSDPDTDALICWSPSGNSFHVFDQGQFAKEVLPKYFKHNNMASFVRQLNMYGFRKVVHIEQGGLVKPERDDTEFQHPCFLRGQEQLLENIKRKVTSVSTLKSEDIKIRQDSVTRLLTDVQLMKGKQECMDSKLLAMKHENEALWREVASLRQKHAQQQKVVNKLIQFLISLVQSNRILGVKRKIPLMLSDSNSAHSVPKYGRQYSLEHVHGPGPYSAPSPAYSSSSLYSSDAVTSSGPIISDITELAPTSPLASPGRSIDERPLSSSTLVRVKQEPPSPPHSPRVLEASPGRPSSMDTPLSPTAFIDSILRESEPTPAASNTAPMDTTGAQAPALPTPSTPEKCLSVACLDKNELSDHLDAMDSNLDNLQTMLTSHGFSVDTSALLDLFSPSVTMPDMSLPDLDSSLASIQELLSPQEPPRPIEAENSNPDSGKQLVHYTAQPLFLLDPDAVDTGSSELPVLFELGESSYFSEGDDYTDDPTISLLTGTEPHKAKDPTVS

[7] = HEp-2 cell cytotoxicity, dose response, cytotoxicity control for RSV inhibitor project, HTS (AID 2410); assay type: functional; conditions: human respiratory syncytial virus
[8] = inhibitors of intracellular T. cruzi replication, confirmation, NIH3T3 host cells, beta-gal luminescence (AID 2044); assay type: functional, cell-based;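 further: intracellular parasites grown in NIH/3T3 mouse fibroblasts as host cells; luminescent beta-galactosidase reporter signal from transgenic T. cruzi replicating inside host cells; inhibitors lower the luminescence signal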
[9] = cytotoxicity toward NIH3T3 fibroblasts, dose response, counter-screen, cell-based, ATP luminescence, mouse fibroblasts (AID 2010); assay type: functional;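 further: cells exposed to compound for about 90 hours before reading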
[10] = molecular target: T3, Corticotropin-releasing factor receptor 2/Corticotropin-releasing factor-binding protein (Homo sapiens, UniProt P24387+Q13324); assay: activators of CRF receptor 2 with binding protein – uHTS hits, confirmation (AID 602473); assay type: functional; conditions: read-out: EC50_Mean
T3 sequence (Q13324 whole entry): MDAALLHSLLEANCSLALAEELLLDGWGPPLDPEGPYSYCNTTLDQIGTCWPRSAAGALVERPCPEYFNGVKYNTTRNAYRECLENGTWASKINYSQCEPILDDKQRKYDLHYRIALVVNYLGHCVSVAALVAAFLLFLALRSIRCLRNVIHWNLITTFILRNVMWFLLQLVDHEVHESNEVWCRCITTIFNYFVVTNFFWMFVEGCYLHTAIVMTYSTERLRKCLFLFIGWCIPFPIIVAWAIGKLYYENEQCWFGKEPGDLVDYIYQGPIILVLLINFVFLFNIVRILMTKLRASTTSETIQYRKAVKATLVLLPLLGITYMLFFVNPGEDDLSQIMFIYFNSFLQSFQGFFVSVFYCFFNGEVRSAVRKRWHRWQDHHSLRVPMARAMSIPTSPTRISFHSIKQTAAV
T3 sequence (P24387 whole entry): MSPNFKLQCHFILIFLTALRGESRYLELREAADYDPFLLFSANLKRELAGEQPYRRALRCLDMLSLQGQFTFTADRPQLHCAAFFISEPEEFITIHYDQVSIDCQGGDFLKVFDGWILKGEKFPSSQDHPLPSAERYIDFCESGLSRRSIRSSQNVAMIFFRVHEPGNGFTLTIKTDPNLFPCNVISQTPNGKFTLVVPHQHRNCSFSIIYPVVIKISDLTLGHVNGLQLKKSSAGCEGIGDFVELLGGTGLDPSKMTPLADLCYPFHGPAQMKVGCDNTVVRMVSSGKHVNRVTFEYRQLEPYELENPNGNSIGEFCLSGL

Cytochrome P450 2D6 = Cytochrome P450 2D6 (Homo sapiens, UniProt P10635);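 further: CYP2D6 member of a cytochrome P450 panel assay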
Chain of Cytochrome P450 2D6 (P10635 whole entry): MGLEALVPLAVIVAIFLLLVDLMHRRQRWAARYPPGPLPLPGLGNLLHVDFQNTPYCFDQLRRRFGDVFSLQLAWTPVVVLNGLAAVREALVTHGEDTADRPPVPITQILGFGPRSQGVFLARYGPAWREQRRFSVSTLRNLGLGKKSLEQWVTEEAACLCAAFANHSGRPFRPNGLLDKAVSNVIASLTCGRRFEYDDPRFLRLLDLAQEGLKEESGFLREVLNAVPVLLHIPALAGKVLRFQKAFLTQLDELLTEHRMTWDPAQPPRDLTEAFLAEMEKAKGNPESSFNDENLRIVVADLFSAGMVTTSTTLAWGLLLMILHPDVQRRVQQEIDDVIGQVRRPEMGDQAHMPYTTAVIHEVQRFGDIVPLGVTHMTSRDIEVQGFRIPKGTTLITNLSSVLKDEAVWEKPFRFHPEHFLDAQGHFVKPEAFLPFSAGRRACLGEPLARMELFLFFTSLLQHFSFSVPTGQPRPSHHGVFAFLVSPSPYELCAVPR

Chain of FAD-linked sulfhydryl oxidase ALR (P55789 whole entry): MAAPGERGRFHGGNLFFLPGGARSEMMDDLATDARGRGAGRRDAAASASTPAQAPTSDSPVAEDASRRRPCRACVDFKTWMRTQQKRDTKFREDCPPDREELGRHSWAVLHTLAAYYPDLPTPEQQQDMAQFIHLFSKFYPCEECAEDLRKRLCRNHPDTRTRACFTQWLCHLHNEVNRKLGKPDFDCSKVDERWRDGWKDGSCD
Chain of Large T antigen (P03070 whole entry): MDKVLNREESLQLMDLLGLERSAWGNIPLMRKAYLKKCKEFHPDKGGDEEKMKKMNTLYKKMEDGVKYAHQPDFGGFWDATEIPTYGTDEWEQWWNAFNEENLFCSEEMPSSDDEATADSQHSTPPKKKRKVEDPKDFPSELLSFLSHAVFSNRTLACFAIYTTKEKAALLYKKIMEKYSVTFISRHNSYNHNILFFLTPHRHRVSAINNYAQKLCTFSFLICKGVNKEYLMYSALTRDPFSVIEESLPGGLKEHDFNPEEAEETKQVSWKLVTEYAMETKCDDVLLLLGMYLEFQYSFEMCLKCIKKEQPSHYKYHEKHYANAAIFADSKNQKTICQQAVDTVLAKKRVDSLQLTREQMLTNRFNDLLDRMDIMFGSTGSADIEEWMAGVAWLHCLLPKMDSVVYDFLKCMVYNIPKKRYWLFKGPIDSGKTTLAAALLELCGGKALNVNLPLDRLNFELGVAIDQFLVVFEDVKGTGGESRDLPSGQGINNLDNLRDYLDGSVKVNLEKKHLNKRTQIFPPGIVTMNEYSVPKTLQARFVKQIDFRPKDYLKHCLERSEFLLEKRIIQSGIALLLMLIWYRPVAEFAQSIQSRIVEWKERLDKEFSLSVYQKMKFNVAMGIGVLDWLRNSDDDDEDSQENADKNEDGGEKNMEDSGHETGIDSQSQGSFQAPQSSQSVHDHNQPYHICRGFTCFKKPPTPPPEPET

With Cc1ccc(OC(=O)CCC(=O)Oc2ccc(C)cc2C)c(C)c1 the AC50 [1] was 3.51 µM (active).

In the case of Cc1ccnc(-n2c(C)cc(/C=C3\C(=O)NC(=S)N(C)C3=O)c2C)c1, the EC50 [2] is reported as 95.3 µM (active) and the EC50 [3] is reported as 65.8 µM (active).

In the case of COc1ccccc1NC(=O)Nc1ncccc1C, the AC50 [4] is reported as 0.903 µM (active).

In the case of Cc1ccc(C)c(S(=O)(=O)Nc2ccc(-n3cnnn3)cc2)c1, the AC50 [1] is reported as > 70 µM (inactive).

In the case of Brc1ccc(CN2CCN(c3ccccc3)CC2)o1, the AC50 [4] is reported as 2.03 µM (active).

With CC(=O)Oc1ccc(C(=O)OCC(=O)c2c(N)n(C)c(=O)n(C)c2=O)cc1OC(C)=O the IC50 (Large T antigen) was 8.56 µM (active) and the IC50 (H9c2) was 6.29 µM (active).

For Cc1ccc[n+](CC(=O)Nc2ccc(N(C)C)cc2)c1, the AC50 [4] was 2.2 µM (active) and the IC50 [5] was 113 µM (active).

With O=C(NCCCn1ccnc1)c1nn2c(C(F)(F)F)cc(-c3ccc(Br)cc3)nc2c1Cl the EC50 [2] was 16.8 µM (active) and the EC50 [3] was 33.2 µM (active).

For CC(=O)N1CCC2(CC1)NC(=O)N(c1ccccc1)N2, the EC50 [6] was 136 µM (active) and the AC50 [4] was 5 µM (active).

In the case of C=CCOc1ccc(/C=N/NC(=O)c2cc3c(OC)cc(OC)cc3[nH]2)cc1, the CC50 [7] is reported as 27.4 µM (active).

For O=C(Nc1ccccc1)c1ccc(-c2ccc(Br)cc2)o1, the CC50 [7] was 16.9 µM (active).

With CCC1Nc2ncnc(N3CCN(c4ccccc4)CC3)c2N(Cc2ccc(Cl)cc2)C1=O (centres undefined) the CC50 [7] was 16.6 µM (active).

With Cc1cccc2c(=O)cc(C)n(CC(N)=O)c12 the CC50 [7] was 24.6 µM (active).

For COc1cc(/C=N/NC(=O)C(C)n2nnc3ccccc32)ccc1O (centres undefined), the IC50 (Large T antigen) was 19.8 µM (active), the AC50 [4] was 0.332 µM (active) and the IC50 [5] was 25.5 µM (active).

With O=S(=O)(NNc1ccc(F)cc1F)c1cccc(Cl)c1 the AC50 [4] was 1.35 µM (active).

With Oc1ccc(N/C(S)=N/c2ccccc2)cc1 the IC50 (Large T antigen) was 5.61 µM (active) and 8.33 µM (active), the EC50 [6] was > 260 µM (inactive) and the IC50 [5] was 32.9 µM (active).

In the case of Cc1ccc(C23CC4CC(CC(NC(=O)NCCN(C)C)(C4)C2)C3)cc1, the EC50 [8] is reported as 0.948 µM (active), the EC50 [2] is reported as 20.9 µM (active) and the EC50 [9] is reported as > 60 µM (not active). The EC50 [3] was 17.9 µM (active).

For CCCCNC(=O)c1onc(CSc2ccc(C)c(C)c2)c1C(=O)O, the AC50 [4] was 8.26 µM (active).

In the case of CN(C)c1ccc(NS(=O)(=O)c2ccc(Cl)cc2)cc1, the IC50 (Large T antigen) is reported as 11.7 µM (active) and the IC50 [5] is reported as 30.6 µM (active).

For Sc1nnc(-c2[nH]nc3c2CCC3)n1/N=C/C=C/c1ccco1, the IC50 (Large T antigen) was 18.1 µM (active).

For O=C(C[N+]1=C2SC=C(c3ccccc3)N2CC1)c1ccc(Br)cc1, the AC50 [4] was 0.221 µM (active).

With OC1=C(/C=N/c2ccc(O)cc2)CCCC1 the IC50 (Large T antigen) was 6.66 µM (active) and the IC50 [5] was 12.5 µM (active).

For CCN(CC)S(=O)(=O)c1cc(C(=O)Nc2cc(Cl)ccc2N2CCN(C)CC2)ccc1Cl, the EC50 [2] was 13.3 µM (active) and the EC50 [3] was 15.8 µM (active).

With CN1CCN(/N=C/c2nc(-c3cccc([N+](=O)[O-])c3)n3ccccc23)CC1 the EC50 [10] was > 53 µM (inactive).

With Cc1cccc(N2CCN(C(=O)CCCn3c(=S)[nH]c4cc5c(cc4c3=O)OCO5)CC2)c1C the CC50 [7] was 23.4 µM (active), the EC50 [8] was 0.389 µM (active) and the EC50 [9] was > 30 µM (not active). The AC50 (Cytochrome P450 2D6) was 10 µM (inconclusive).

For O=C(NCCSc1c[nH]c2ccccc12)C1CC1, the AC50 [4] was 8.01 µM (active).

With COc1ccc(-c2c(-c3ccsc3)oc(=O)c3cc(OC)c(OC)cc23)cc1 the CC50 [7] was 47.2 µM (active).

With Brc1ccccc1OCCCOc1cccc2cccnc12 the CC50 [7] was 26.3 µM (active).

For Cc1cc(/C=N/NC(=O)c2c(Br)cnn2C)c(C)n1-c1cccc(Br)c1, the CC50 [7] was 41.5 µM (active).

For CCOc1ccc(C2C=C(c3ccc(C)cc3)Nc3nnnn32)cc1 (centres undefined), the EC50 [10] was > 53 µM (inactive).

In the case of FC(F)(F)c1cccc(-c2ccn3ncnc3n2)c1, the CC50 [7] is reported as 35.5 µM (active).
